Where two headings read alike, the source gives them in different places.
How the values were obtained:
[1] = test system: HDAC (HeLa cell extract); assay: Primary assay: deacetylase activity, HeLa cell extract as source of HDAC; assay type: biochemical, human; conditions: for IC50: read-out: HDAC Inhibition (IC50 unless otherwise specified) HeLa; for HDAC Inhibition HeLa, % @ 500 nM: 500 nM compound; for HDAC Inhibition HeLa, % @ 100 nM: 100 nM compound
Description: Decreased activity indicates increased inhibition by the test compound.
Alternatively, the activity of the compounds as HDAC inhibitors was determined using a commercially available fluorescent assay kit: (Fluor de Lys™, BioMol Research Labs, Inc., Plymouth Meeting, USA).
Extensive comparative studies have shown that Primary Assay (1) and Primary Assay (2), discussed above, yield equivalent results. Primary Assay results reported herein are (a) exclusively from (1); (b) exclusively from (2); or (c) from both (1) and (2).
The HeLa cell extract was made from HeLa cells (ATCC Ref. No. CCL-2) by freeze-thawing three times in 60 mM TrisCl pH 8.0, 450 mM NaCl, 30% glycerol. Two cell volumes of extraction buffer were used, and particulate material was centrifuged out (20800 g, 4° C., 10 min). The supernatant extract having deacetylase activity was aliquoted and frozen for storage.
(§1) % activity={(S^C−B)/(S^o−B)}×100

[2] = test system: HeLa cells; assay: Secondary assay: cell proliferation inhibition WST-1, HeLa; assay type: cell-based; conditions: Homo sapiens, 48 h, read-out: Cell Proliferation Inhibition WST-1 (IC50 unless otherwise specified) HeLa
Source text: (§2) Compounds with HDAC inhibition activity, as determined using the primary assay, were subsequently evaluated using secondary cell-based assays. The following cell lines were used:
(§3) HeLa—Human cervical adenocarcinoma cell line (ATCC ref. No. CCL-2). K11—HPV E7 transformed human keratinocyte line provided by Pidder Jansen-Duerr, Institut für Biomedizinische Altemsforschung, Innsbruck, Austria. NHEK-Ad—Primary human adult keratinocyte line (Cambrex Corp., East Rutherford, N.J., USA).
(§4) Cells were plated in 96-well plates at 3-10×10^3 cells/well in 100 μL of culture medium. The following day, different concentrations of candidate compounds were added and the cells incubated at 37° C. for 48 h. Subsequently, 10 μL/well of WST-1 reagent was added and the cells reincubated for 1 hour. After the incubation time, absorbance was measured.
(§5) WST-1 is a tetrazolium salt which is cleaved to formazan dye by cellular enzymes. An expansion in the number of viable cells results in an increase in the overall activity of mitochondrial dehydrogenases in the sample. This augmentation in the enzyme activity leads to an increase in the amount of formazan dye formed, which directly correlates to the number of metabolically active cells in the culture. The formazan dye produced is quantified by a scanning multiwell spectrophotometer by measuring the absorbance of the dye solution at 450 nm wavelength (reference wavelength 690 nm).
(§6) Percent activity (% activity) in reducing the number of viable cells was calculated for each test compound as:
as §1
(§7) IC50 values were calculated using the software package Prism 3.0 (GraphPad Software Inc., San Diego, Calif.), setting top value at 100 and bottom value at 0.

[3] = test system: K11 (HPV E7 transformed human keratinocyte line); assay: Secondary assay: cell proliferation inhibition WST-1, K11; assay type: cell-based; conditions: K11, 48 h, read-out: Cell Proliferation Inhibition WST-1 (IC50 unless otherwise specified) K11
Source text: as §2, §3, §4, §5, §6, §1, §7

[4] = test system: JURKAT (human T-cell line); assay: Secondary assay: cell proliferation inhibition WST-1, Jurkat; assay type: cell-based; conditions: 48 h, read-out: Cell Proliferation Inhibition WST-1 (IC50 unless otherwise specified) Jurkat
[5] = test system: NHEK-Ad (primary human adult keratinocyte line); assay: Secondary assay: cell proliferation inhibition WST-1, NHEK-Ad; assay type: cell-based; conditions: NHEK-AD; 48 h; read-out: Cell Proliferation Inhibition WST-1 (IC50 unless otherwise specified) NHEK-AD
Source text: as §2, §3, §4
WST-1 is a tetrazolium salt which is cleaved to formazan dye by cellular enzymes. […] The formazan dye produced is quantified by a scanning multiwell spectrophotometer by measuring the absorbance of the dye solution at 450 nm wavelength (reference wavelength 690 nm).
Percent activity (% activity) in reducing the number of viable cells was calculated for each test compound as: […]
as §7

| Compound | IC50 [1] | melting point | also measured |
| --- | --- | --- | --- |
| O=C(/C=C/c1cccc(S(=O)(=O)N2CCN(c3ccccc3Cl)CC2)c1)NO [PX118811, (E)-N-Hydroxy-3-{3-[(4-(2-chlorophenyl)-1-piperazinyl)sulfonyl]phenyl}-2-propenamide] | 42 nM | 183 °C |  |
| O=C(CCCCCC(=O)N1CCN(C(c2ccccc2)c2ccccc2)CC1)NO [PX117403, 7-(4-Benzhydryl-piperazin-1-yl)-7-oxo-heptanoic acid hydroxyamide] |  | 157 to 159 °C | HDAC Inhibition HeLa, % @ 500 nM [1]: 28% @ 500 nM |
| O=C(CCCCCC(=O)N1CCN(c2ccccc2Cl)CC1)NO [PX118793, 7-[4-(2-Chloro-phenyl)-piperazin-1-yl]-7-oxo heptanoic acid hydroxyamide] | 188 nM | 128 to 130 °C |  |
| O=C(CCCCCCC(=O)N1CCN(c2ccc([N+](=O)[O-])cc2)CC1)NO [PX118849, N-Hydroxy-8-[4-(4-nitrophenyl)-1-piperazinyl]-8-oxooctanamide] | 26 nM | 125 to 127 °C |  |
| O=C(CCCCCC(=O)N1CCN(c2ccccc2)CC1)NO [PX117404, 7-Oxo-7-(4-phenyl-piperazin-1-yl)-heptanoic acid hydroxyamide] |  | 107 to 109 °C | HDAC Inhibition HeLa, % @ 500 nM [1]: 35% @ 500 nM |
| COc1ccccc1N1CCN(C(=O)CCCCCCC(=O)NO)CC1 [PX117768, 8-[4-(2-Methoxy-phenyl)-piperazin-1-yl]-8-oxo-octanoic acid hydroxyamide] | 175 nM | 135 to 137 °C | IC50 [2]: 3300 nM; IC50 ([3]; Homo sapiens, Keratinocyte): 8670 nM; IC50 ([4]; Homo sapiens): 1040 nM |
| O=C(/C=C/c1cccc(S(=O)(=O)N2CCN(c3ccccn3)CC2)c1)NO [PX118807, (E)-N-Hydroxy-3-{3-[(4-(2-pyridinyl)-1-piperazinyl)sulfonyl]phenyl}-2-propenamide] |  |  | HDAC Inhibition HeLa, % @ 100 nM [1]: 60% @ 100 nM |
| O=C(CCCCCCC(=O)N1CCN(C(c2ccccc2)c2ccccc2)CC1)NO [PX117764] | 785 nM | 126 to 129 °C | IC50 [2]: 29200 nM; IC50 ([3]; Homo sapiens, Keratinocyte): 9450 nM; IC50 ([4]; Homo sapiens): 2680 nM |
| Nc1ccccc1NC(=O)c1ccc(CNC(=O)OCc2cccnc2)cc1 [MS-275, reference compound] |  |  | IC50 [3]: 9160 nM; IC50 [5]: 3100 nM; IC50 [4]: 365 nM |
| oxamflatin [reference compound] |  |  | IC50 [4]: 170 nM |
| O=C(/C=C/c1cccc(S(=O)(=O)N2CCN(c3ccccc3)CC2)c1)NO [PX118490, (E)-N-Hydroxy-3-{3-[(4-phenyl-1-piperazinyl)sulfonyl]phenyl}-2-propenamide] |  |  | HDAC Inhibition HeLa, % @ 100 nM [1]: 59% @ 100 nM; IC50 [2]: 1000 nM; IC50 ([3]; Homo sapiens, Keratinocyte): 2490 nM; IC50 ([4]; Homo sapiens): 460 nM |
| CN(C)c1ccc(CC(=O)N2CCN(C(=O)CCCCCCC(=O)NO)CC2)cc1 [PX118848, 8-(4-{2-[4-(Dimethylamino)phenyl]acetyl}-1-piperazinyl)-N-hydroxy-8-oxooctanamide] |  | 77 to 79 °C | HDAC Inhibition HeLa, % @ 100 nM [1]: 44% @ 100 nM |
| O=C(CCCCCCC(=O)N1CCN(c2ncccn2)CC1)NO [PX118850, N-Hydroxy-8-oxo-8-[4-(2-pyrimidinyl)-1-piperazinyl]octanamide] | 70 nM | 132 to 133.5 °C |  |

More lines, main results first:

| IC50 [1] | melting point | Compound | also measured |
| --- | --- | --- | --- |
| 286 nM | 150 to 150.5 °C | N#Cc1ccc(C(=O)N2CCN(C(=O)CCCCCCC(=O)NO)CC2)cc1 [PX118844, 8-[4-(4-Cyanobenzoyl)-piperazin-1-yl]-8-oxo octanoic acid hydroxyamide] |  |
| 34 nM | 122 to 124 °C | O=C(CCCCCCC(=O)N1CCN(c2cccc(Cl)c2)CC1)NO [PX118792, 8-[4-(3-Chloro-phenyl)-piperazin-1-yl]-8-oxo octanoic acid hydroxyamide] |  |
| 133 nM | 133.5 to 134.5 °C | O=C(CCCCCCC(=O)N1CCN(C(=O)c2ccc3ccccc3c2)CC1)NO [PX118830, 8-[4-(Naphthalene-2-carbonyl)-piperazin-1-yl]-8-oxo octanoic acid hydroxyamide] |  |
| 46 nM | 190 °C | COc1ccccc1N1CCN(S(=O)(=O)c2cccc(/C=C/C(=O)NO)c2)CC1 [PX118810, (E)-N-Hydroxy-3-{3-[(4-(2-methoxyphenyl)-1-piperazinyl)sulfonyl]phenyl}-2-propenamide] |  |
| 36 nM | 131 to 132 °C | O=C(CCCCCCC(=O)N1CCN(c2ccccc2Cl)CC1)NO [PX118791, 8-[4-(2-Chloro-phenyl)-piperazin-1-yl]-8-oxo octanoic acid hydroxyamide] |  |
| 31 nM | 122 to 122.5 °C | COc1cccc(N2CCN(C(=O)CCCCCCC(=O)NO)CC2)c1 [PX118847, 8-[4-(3-Methoxyphenyl)-piperazin-1-yl]-8-oxo octanoic acid hydroxyamide] |  |
| 26 nM | 201 °C | O=C(/C=C/c1cccc(S(=O)(=O)N2CCN(c3cccc(Cl)c3)CC2)c1)NO [PX118812, (E)-N-Hydroxy-3-{3-[(4-(3-chlorophenyl)-1-piperazinyl)sulfonyl]phenyl}-2-propenamide] |  |
| 194 nM | 100 to 101 °C | O=C(CCCCCCC(=O)N1CCN(C(=O)c2ccccc2)CC1)NO [PX118831, 8-(4-Benzoyl-piperazin-1-yl)-8-oxo octanoic acid hydroxyamide] |  |
| 3.4 nM | 149 to 150 °C | COc1ccc(N2CCN(C(=O)CCCCCCC(=O)NO)CC2)cc1 [PX118846, 8-[4-(4-Methoxyphenyl)-piperazin-1-yl]-8-oxo octanoic acid hydroxyamide] |  |
| 74 nM | 120 to 122 °C | O=C(CCCCCC(=O)N1CCN(c2cccc(Cl)c2)CC1)NO [PX118794, 7-[4-(3-Chloro-phenyl)-piperazin-1-yl]-7-oxo heptanoic acid hydroxyamide] |  |
| 212 nM | 90 to 92 °C | CN(C)c1ccc(C(=O)N2CCN(C(=O)CCCCCCC(=O)NO)CC2)cc1 [PX118832] |  |

Reference: patent US20080269237A1, “CARBAMIC ACID COMPOUNDS COMPRISING A PIPERAZINE LINKAGE AS HDAC INHIBITORS” (TOPOTARGET UK LIMITED, priority 2002, published 2008)
